Measurements from patent US12630544B2, “Compound, α-synuclein aggregate binder, and use thereof” (NATIONAL INSTITUTES FOR QUANTUM SCIENCE AND TECHNOLOGY, priority 2020, dated 2026).

Legend:
[1] = molecular target: α-synuclein aggregates (Homo sapiens, UniProt P37840); assay: In vitro fluorescence microscope measurement, amygdala sections of DLB patient brain; set-up: α-synuclein aggregates formed in the brain of the DLB patient; from tissue; host or cells: post-mortem human brain: amygdala of DLB patient (sections or homogenate); cerebellum of MSA patient; details: 30 μM test compound
From the text: Postmortem human brains were obtained in autopsies carried out with respect to a patient with dementia with Lewy bodies (DLB) and a patient with Alzheimer's disease (AD). In a cryostat (HM560, Carl Zeiss), frozen tissue from the DLB patient was sliced into sections each having a thickness of 20 μm. Brain tissue from the AD patient was fixed in 10% neutral buffered formalin, embedded in a paraffin block, and sliced into sections each having a thickness of 6 μm.
Postfixed fresh frozen sections of amygdala tissue obtained from the brain of the DLB patient and deparaffinized sections of formalin-fixed paraffin-embedded middle frontal gyrus tissue obtained from the brain of the AD patient were used. Each brain section and a 30 μM test compound were incubated in a 50% ethanol solution at room temperature for 30 minutes. Thereafter, the section was washed with a 50% ethanol solution for 5 minutes and with ultrapure water for 3 minutes. This washing was carried out twice. After the section was mounted in a mounting medium (VECTASHIELD H-1000, Vector Laboratories), an image of a lesion-enriched area on the section was obtained with use of a fluorescence microscope (DM4000, Leica, excitation wavelength: 391 nm to 437 nm). In FIG. 1, each arrowhead indicates fluorescence from the compound binding to α-synuclein aggregates in the brain of the DLB patient, each arrow indicates fluorescence from the compound binding to amyloid-β aggregates in the brain of the AD patient, and an asterisk indicates fluorescence from the compound binding to tau aggregates in the brain of the AD patient. The fluorescence intensities of lesion-enriched areas and lesion-free areas (background) were quantified with use of analysis software (Image J). Note that SPAL-T-05 and SPAL-T-06 were each used as the test compound. Note also that BF-227 (2-(2-[2-dimethylaminothiazol-5-yl]ethenyl)-6-(2-[fluoro]ethoxy)benzoxazole (catalog No.: NP039-0)) and PBB3 (2-((1E,3E)-4-(6-(methylamino)pyridin-3-yl)buta-1,3-dienyl)benzo[d]thiazol-6-ol) (catalog No.: NP039-0), each available from NARD INSTITUTE, LTD., were each used as a control compound.

[2] = molecular target: T1, α-synuclein aggregates (Mus musculus, UniProt O55042); assay: In vivo PET imaging of mouse brain (α-synuclein fibril-inoculated mouse vs physiological saline-injected mouse); details: intravenous injection of 18F-labeled compound, 90 minutes scan
T1 construct: from tissue; host or cells: brain of C57/BL/6 mouse inoculated in the striatum with recombinant (E. coli) mouse α-synuclein fibrils; sections or living animal
Method: First, mouse α-synuclein was expressed in and extracted from E. coli as a recombinant protein, and then incubated in vitro to form insoluble α-synuclein aggregates. The α-synuclein aggregates were then inoculated into the striatum of a mouse. […] Note that the inoculation of the α-synuclein aggregates into the striatum of the mouse was carried out in the following manner. First, hair on the head of a 9-week-old C57/BL/6 male mouse which had been anesthetized with 1.5% (v/v) isoflurane was removed, and the scalp was disinfected with isodine, followed by application of xylocaine and incision in the scalp to expose the skull. Then, a hole was drilled in the skull at a position of 0.05 mm posterior to the bregma and 2 mm lateral to the midline, and 3 μl of an α-synuclein fibril solution (mouse α-synuclein fibril (4 mg/ml) in saline) was injected into a position […] ventral to the brain surface with use of a glass pipette. The scalp was then returned and sutured.
PET scanning was carried out with use of a micro PET Focus 220 animal scanner (Siemens Medical Solutions), which provided 95 slices each having a thickness of 0.851 mm (center thickness), a […]. Before the scanning, an α-synuclein fibril-inoculated mouse and a physiological saline-injected mouse (control) were each anesthetized with 1.5% (v/v) isoflurane. […]

CNc1cnc(C#C/C=C/c2nc3ccc(OCC(O)CF)cc3s2)cn1 (stereo not drawn) [SPAL-T-06, (E)-1-fluoro-3-((2-(4-(5-(methylamino)pyrazin-2-yl)but-1-en-3-yn-1-yl)benzo[d]thiazol-6-yl)oxy)propan-2-ol]
binding to α-synuclein aggregates formed in the brain of the DLB patient (fluorescence) ([1]; 50% ethanol, room temperature, 30 minutes, amygdala sections): reactivity greater than that of PBB3 | binding selectivity: α-synuclein aggregates (DLB brain) versus tau aggregates or amyloid-β aggregates (AD brain) ([1]; fluorescence of lesion-enriched vs lesion-free areas): greater than binding of each of SPAL-T-06 and SPAL-T-05 to tau aggregates or amyloid-β aggregates | brain-entering property / clearance rate from the brain (PET) [2]: adequate brain-entering property or an adequate clearance rate from the brains
